# Assay results taken from BindingDB's records for patent US20230295166 (Antengene Discovery, 2023).
# Molecular target: Serine/threonine-protein kinase ATR (Homo sapiens, UniProt Q13535)
# Experiment: ATR Inhibition Assay
# Method: Detection of ATR kinase activity utilized the Mobility shift assay to measure the phosphorylation of the substrate protein FAM-RAD17 (GL, Cat. No. 514318, Lot. No. P19042-MJ524315). The assay was developed and conducted at Chempartner. All the test compounds were dissolved in 100% DMSO at concentration of 20 mM, then prepare compounds and conducted the assay as follows: 1) Transfer […] 20 mM compound to 40 μl of 100% DMSO in a 96-well plate.2) Serially dilute the compound by transferring 20 μl to 60 μl of 100% DMSO in the next well and so forth for a total of 10 concentrations.3) Add 100 μl of 100% DMSO to two empty wells for no compound control and no enzyme control in the same 96-well plate. Mark the plate as source plate.4) Transfer 40 μl of compound from source plate to a new 384-well plate as the intermediate plate.5) Transfer 60 nl compounds to assay plate by Echo.6) Add ATR kinase (Eurofins, Cat. No. 14-953, Lot. No. D14 JP007N) into Kinase base buffer (50 mM HEPES, pH 7.5; 0.0015% Brij-35; 0.01% Triton) to prepare 2 enzyme solution, then add 10 μl of 2 enzyme solution to each well of the 384-well assay plate, incubate at room temperature for 10 min.7) Add FAM-RAD17 and ATP (Sigma, Cat. No. A7699-1G, CAS No. 987-65-5) in the kinase base buffer to prepare 2 peptide solution, then add 10 μl to the assay plate.8) Incubate at 28 C. for specified period of time. […]
# Sequence of Serine/threonine-protein kinase ATR (Q13535 whole entry): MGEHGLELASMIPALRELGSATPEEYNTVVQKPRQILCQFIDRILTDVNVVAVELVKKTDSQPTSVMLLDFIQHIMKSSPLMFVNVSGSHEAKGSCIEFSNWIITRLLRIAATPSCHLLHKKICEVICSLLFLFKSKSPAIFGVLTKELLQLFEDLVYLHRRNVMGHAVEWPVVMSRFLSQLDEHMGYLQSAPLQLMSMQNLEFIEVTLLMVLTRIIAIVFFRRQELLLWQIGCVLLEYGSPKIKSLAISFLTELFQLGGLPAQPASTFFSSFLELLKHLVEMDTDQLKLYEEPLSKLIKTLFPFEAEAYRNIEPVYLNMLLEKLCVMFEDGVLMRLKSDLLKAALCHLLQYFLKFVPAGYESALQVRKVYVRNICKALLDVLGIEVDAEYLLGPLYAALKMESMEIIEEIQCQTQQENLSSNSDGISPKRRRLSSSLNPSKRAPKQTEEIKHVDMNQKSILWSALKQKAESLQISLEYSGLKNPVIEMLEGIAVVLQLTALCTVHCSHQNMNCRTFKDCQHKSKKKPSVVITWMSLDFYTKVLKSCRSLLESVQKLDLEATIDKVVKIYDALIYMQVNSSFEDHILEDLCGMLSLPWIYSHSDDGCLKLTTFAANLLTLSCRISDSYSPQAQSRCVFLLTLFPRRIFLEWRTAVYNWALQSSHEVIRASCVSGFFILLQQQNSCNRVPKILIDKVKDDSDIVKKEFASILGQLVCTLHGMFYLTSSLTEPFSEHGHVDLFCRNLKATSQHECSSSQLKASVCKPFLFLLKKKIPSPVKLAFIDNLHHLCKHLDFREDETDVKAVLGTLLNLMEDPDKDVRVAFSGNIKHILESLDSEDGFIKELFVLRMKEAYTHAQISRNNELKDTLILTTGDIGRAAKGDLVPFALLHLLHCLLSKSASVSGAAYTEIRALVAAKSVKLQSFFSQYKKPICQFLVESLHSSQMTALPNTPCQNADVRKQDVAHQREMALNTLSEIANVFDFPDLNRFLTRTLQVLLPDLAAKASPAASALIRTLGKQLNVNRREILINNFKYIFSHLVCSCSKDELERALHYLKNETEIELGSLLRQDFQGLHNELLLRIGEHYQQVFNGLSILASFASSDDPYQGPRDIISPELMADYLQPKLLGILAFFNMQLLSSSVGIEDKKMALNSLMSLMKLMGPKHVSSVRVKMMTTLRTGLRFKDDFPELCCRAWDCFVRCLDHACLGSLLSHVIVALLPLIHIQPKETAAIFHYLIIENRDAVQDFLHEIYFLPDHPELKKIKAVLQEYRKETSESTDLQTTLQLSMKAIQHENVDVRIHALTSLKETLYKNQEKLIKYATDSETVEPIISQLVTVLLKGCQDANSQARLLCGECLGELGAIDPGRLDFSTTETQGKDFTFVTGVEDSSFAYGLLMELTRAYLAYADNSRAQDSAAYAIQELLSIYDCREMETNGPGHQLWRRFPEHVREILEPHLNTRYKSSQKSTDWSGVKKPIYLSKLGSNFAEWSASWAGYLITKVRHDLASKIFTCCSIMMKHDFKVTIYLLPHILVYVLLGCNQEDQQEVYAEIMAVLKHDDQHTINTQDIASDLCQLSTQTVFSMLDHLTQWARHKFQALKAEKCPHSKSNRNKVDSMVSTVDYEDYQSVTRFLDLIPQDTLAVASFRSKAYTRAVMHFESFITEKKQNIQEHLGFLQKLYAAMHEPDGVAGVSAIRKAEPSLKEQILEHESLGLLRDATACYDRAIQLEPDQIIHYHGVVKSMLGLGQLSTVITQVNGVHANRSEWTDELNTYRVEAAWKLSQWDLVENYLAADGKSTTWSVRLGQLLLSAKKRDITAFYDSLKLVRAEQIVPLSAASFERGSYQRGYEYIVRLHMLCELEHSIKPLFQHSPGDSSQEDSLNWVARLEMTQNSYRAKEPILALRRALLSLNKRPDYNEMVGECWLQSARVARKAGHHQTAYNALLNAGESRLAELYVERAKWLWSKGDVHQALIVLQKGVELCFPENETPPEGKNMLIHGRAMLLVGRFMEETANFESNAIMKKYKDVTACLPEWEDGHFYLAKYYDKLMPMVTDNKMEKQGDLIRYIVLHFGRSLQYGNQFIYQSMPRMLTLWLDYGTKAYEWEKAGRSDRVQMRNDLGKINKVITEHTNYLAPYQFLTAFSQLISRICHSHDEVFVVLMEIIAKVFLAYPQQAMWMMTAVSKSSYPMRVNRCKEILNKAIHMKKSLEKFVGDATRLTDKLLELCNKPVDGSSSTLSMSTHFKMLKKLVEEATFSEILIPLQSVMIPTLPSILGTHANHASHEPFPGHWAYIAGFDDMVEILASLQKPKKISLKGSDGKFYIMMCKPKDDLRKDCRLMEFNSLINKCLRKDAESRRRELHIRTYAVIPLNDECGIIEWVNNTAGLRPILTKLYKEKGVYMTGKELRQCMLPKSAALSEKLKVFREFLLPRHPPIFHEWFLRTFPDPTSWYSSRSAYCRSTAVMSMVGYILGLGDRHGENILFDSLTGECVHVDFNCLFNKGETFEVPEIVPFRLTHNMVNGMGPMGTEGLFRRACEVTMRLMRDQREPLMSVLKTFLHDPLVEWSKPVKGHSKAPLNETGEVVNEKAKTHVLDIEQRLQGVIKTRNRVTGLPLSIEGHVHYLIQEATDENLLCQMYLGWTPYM
row,IC50 [nM],Structure (SMILES)
1,< 100,"C[C@@H]1COCCN1c1cc(-c2ccnn2C)c2c(Cl)nc(-c3ccn[nH]3)n2n1 [US20230295166, Compound 61]"
2,< 100,"Cc1cc(-c2nsc3c(N4CCCCS4(=O)=O)cc(N4CCOC[C@H]4C)nc23)[nH]n1 [US20230295166, Compound 82]"
